Reference: US20250144067A1, “PERSONALIZED STARVATION THERAPY FOR CANCER” (Faeth Therapeutics, Inc., priority 2021, published 2025)
Structures can show the parent of a compound that is named as a salt. Where two headings read alike, the source gives them in different places.

Tests used:
[1] = tested on: NCI-H292 lung cancer cells; experiment: FDA drug screening, complete media vs cholesterol-free media with simvastatin (TABLE 2); format: cell-based, human
[2] = tested on: NCI-H292 lung cancer cells; experiment: FDA drug screening, complete media vs cholesterol-free media without statin (TABLE 1); format: cell-based, human
[3] = NCI-H292 cells, FDA drug library screen, cholesterol-free media with simvastatin 0.04 μM
[4] = NCI-H292 cells, FDA drug library screen, complete media
[5] = complete media vs cholesterol-free media + simvastatin (0.04 μM), >0 enhanced anti-cancer activity, about 0 neutral, <0 antagonist
[6] = Complete minus Cholesterol-free, greater than 0 enhanced anti-cancer activity, about 0 neutral, below 0 antagonist
[7] = NCI-H292 cells, FDA drug library screen, cholesterol-free media without statin
[8] = NCI-H292 cells, cholesterol-free media with simvastatin 0.04 μM, cell growth value in FDA drug screen
[9] = NCI-H292 cells, complete media, cell growth value in FDA drug screen
[10] = complete media minus cholesterol-free media + simvastatin, >0 enhanced anti-cancer activity, about 0 neutral, <0 antagonist
[11] = Complete minus Cholesterol-free, >0 enhanced anti-cancer activity, about 0 neutral, <0 antagonist
[12] = NCI-H292 cells, cholesterol-free media without statin
[13] = NCI-H292 cells, drug in cholesterol-free media with simvastatin 0.04 μM
[14] = NCI-H292 cells, drug in complete media
[15] = NCI-H292 cells, cholesterol-free media without statin, FDA drug library screen
[16] = NCI-H292 cells, complete media, FDA drug library screen
[17] = complete vs cholesterol-free media, >0 enhanced anti-cancer activity, about 0 neutral, <0 antagonist
[18] = complete vs cholesterol-free media, greater than 0 enhanced anti-cancer activity, about 0 neutral, below 0 antagonists
[19] = Complete minus Cholesterol-free, greater than 0 enhanced anti-cancer activity, about 0 neutral, below 0 antagonists
[20] = NCI-H292 cells in cholesterol-free media without statin
[21] = NCI-H292 cells in complete media
[22] = NCI-H292 cells, cholesterol-free media with simvastatin 0.04 μM, FDA drug library screen (TABLE 2)
[23] = NCI-H292 cells, complete media, FDA drug library screen (TABLE 2)
[24] = complete media minus cholesterol-free media + simvastatin (0.04 μM), >0 enhanced anti-cancer activity, about 0 neutral, <0 antagonist
[25] = complete media minus cholesterol-free media + simvastatin, […]
[26] = Complete minus Cholesterol-free, […]
[27] = complete media minus cholesterol-free media + simvastatin (0.04 μM), […]
[28] = complete vs cholesterol-free media, […]
[29] = NCI-H292 cells, FDA library drug in cholesterol-free media with simvastatin 0.04 μM
[30] = NCI-H292 cells, FDA library drug in complete media

CC(=O)c1ccc(S(=O)(=O)NC(=O)NC2CCCCC2)cc1 [Acetohexamide]
Cholesterol-free media + simvastatin (0.04 μM) [1, 3]: 1.214 | Complete Media [1, 4]: 1.116 | Difference [1, 5]: −0.10 | Difference [2, 6]: −0.13 | Cholesterol-free [2, 7]: 1.163 | Complete [2, 4]: 1.03

CC(=O)NO [Acetohydroxamic acid]
Cholesterol-free media + simvastatin (0.04 μM) [1, 8]: 0.8799 | Complete Media [1, 9]: 0.8992 | Difference [1, 10]: 0.02 | Difference [2, 11]: −0.28 | Cholesterol-free [2, 12]: 1.174 | Complete ([2]; NCI-H292 cells, complete media): 0.8978

CC(=O)OCC[N+](C)(C)C.[Cl-] [Acetylcholine (chloride)]
Cholesterol-free media + simvastatin (0.04 μM) [1, 13]: 0.9864 | Complete Media [1, 14]: 0.8029 | Difference [1, 5]: −0.18 | Cholesterol-free [2, 15]: 1.32 | Complete [2, 16]: 1.724 | Difference [2, 17]: 0.40

CC(=O)OCC[N+](C)(C)C.[I-] [Acetylcholine (iodide)]
Cholesterol-free media + simvastatin (0.04 μM) [1, 13]: 1.762 | Complete Media [1, 14]: 1.59 | Difference [1, 5]: −0.17 | Cholesterol-free [2, 12]: 1.351 | Complete ([2]; NCI-H292 cells, complete media): 1 | Difference [2, 18]: −0.35

CC(=O)N[C@@H](CS)C(=O)O [Acetylcysteine]
Cholesterol-free media + simvastatin (0.04 μM) [1, 13]: 1.145 | Complete Media [1, 14]: 0.9059 | Difference [1, 5]: −0.24 | Difference [2, 19]: −0.64 | Cholesterol-free [2, 20]: 1.369 | Complete [2, 21]: 0.7324

CC(=O)N[C@@H](CC(C)C)C(=O)O [Acetylleucine]
Cholesterol-free media + simvastatin (0.04 μM) [1, 22]: 0.8948 | Complete Media [1, 23]: 0.8714 | Difference [1, 24]: −0.02 | Difference [2, 6]: −0.09 | Cholesterol-free [2, 7]: 0.9104 | Complete [2, 4]: 0.8206

Cc1cnc(C(=O)O)c[n+]1[O-] [Acipimox]
Cholesterol-free media + simvastatin (0.04 μM) [1, 3]: 1.352 | Complete Media [1, 4]: 1.26 | Difference [1, 5]: −0.09 | Cholesterol-free [2, 12]: 1.354 | Complete ([2]; NCI-H292 cells, complete media): 1.008 | Difference [2, 18]: −0.35

COc1cc(C)c(/C=C/C(C)=C/C=C/C(C)=C/C(=O)O)c(C)c1C [Acitretin]
Cholesterol-free media + simvastatin (0.04 μM) ([1]; NCI-H292 cells, cholesterol-free media with simvastatin 0.04 μM, […]): 0.7241 | Complete Media ([1]; NCI-H292 cells, complete media, […]): 0.76 | Difference [1, 25]: 0.04 | Difference [2, 26]: −0.08 | Cholesterol-free [2, 7]: 0.8064 | Complete [2, 4]: 0.7285

CC[C@@]1(O)C[C@H](O[C@H]2C[C@H](N(C)C)[C@H](O[C@H]3C[C@H](O)[C@H](O[C@H]4CCC(=O)[C@H](C)O4)[C@H](C)O3)[C@H](C)O2)c2c(cc3c(c2O)C(=O)c2c(O)cccc2C3=O)[C@H]1C(=O)OC.Cl [Aclacinomycin A hydrochloride]
Cholesterol-free media + simvastatin (0.04 μM) [1, 22]: 0.01688 | Complete Media [1, 23]: 0.01023 | Difference [1, 27]: −0.01 | Difference [2, 26]: −0.01 | Cholesterol-free [2, 15]: 0.01335 | Complete [2, 16]: 0.007534

O=C(O[C@H]1C[N+]2(CCCOc3ccccc3)CCC1CC2)C(O)(c1cccs1)c1cccs1.[Br-] [Aclidinium (Bromide)]
Cholesterol-free media + simvastatin (0.04 μM) [1]: 0.8781 | Complete Media [1]: 0.7357 | Difference [1]: −0.14 | Cholesterol-free [2]: 1.253 | Complete [2]: 0.9873 | Difference [2]: −0.27

Nc1nc2c(ncn2COCCO)c(=O)[nH]1 [Acyclovir]
Cholesterol-free media + simvastatin (0.04 μM) [1, 3]: 1.866 | Complete Media [1, 4]: 1.782 | Difference [1, 5]: −0.08 | Cholesterol-free [2, 15]: 0.843 | Complete [2, 16]: 1.434 | Difference [2, 17]: 0.59

COc1ccc(-c2ccc3cc(C(=O)O)ccc3c2)cc1C12CC3CC(CC(C3)C1)C2 [Adapalene]
Cholesterol-free media + simvastatin (0.04 μM) [1, 22]: 0.9237 | Complete Media [1, 23]: 0.9286 | Difference [1, 24]: 0.00 | Cholesterol-free [2, 15]: 0.6976 | Complete [2, 16]: 1.022 | Difference [2, 17]: 0.32

CC(C)(C)C(=O)OCOP(=O)(COCCn1cnc2c(N)ncnc21)OCOC(=O)C(C)(C)C [Adefovir dipivoxil]
Cholesterol-free media + simvastatin (0.04 μM) [1, 22]: 0.2485 | Complete Media [1, 23]: 0.1986 | Difference [1, 24]: −0.05 | Difference [2, 11]: −0.04 | Cholesterol-free [2, 15]: 0.1811 | Complete [2, 16]: 0.1375

Nc1ncnc2c1ncn2CCOCP(=O)(O)O [Adefovir]
Cholesterol-free media + simvastatin (0.04 μM) [1, 22]: 0.9937 | Complete Media [1, 23]: 0.9462 | Difference [1, 27]: −0.05 | Cholesterol-free [2, 15]: 0.8102 | Complete [2, 16]: 1.199 | Difference [2, 28]: 0.39

Nc1ncnc2[nH]cnc12 [Adenine]
Cholesterol-free media + simvastatin (0.04 μM) [1, 3]: 1.106 | Complete Media [1, 4]: 1.256 | Difference [1, 10]: 0.15 | Difference [2, 19]: −0.97 | Cholesterol-free [2, 20]: 1.858 | Complete [2, 21]: 0.8914

Nc1ncnc2c1ncn2[C@@H]1O[C@H](CO)[C@@H](O)[C@H]1O [Adenosine]
Cholesterol-free media + simvastatin (0.04 μM) [1, 29]: 1.888 | Complete Media [1, 30]: 1.6 | Difference [1, 5]: −0.29 | Difference [2, 6]: −0.14 | Complete [2, 4]: 0.8055

CCN(CC)CCOC(=O)C(c1ccccc1)c1ccccc1 [Adiphenine (hydrochloride)]
Cholesterol-free media + simvastatin (0.04 μM) [1, 29]: 1.255 | Complete Media [1, 30]: 0.9527 | Difference [1, 5]: −0.30 | Difference [2, 11]: −0.20 | Cholesterol-free [2, 12]: 1.088 | Complete ([2]; NCI-H292 cells, complete media): 0.8864

CN(C)C/C=C/C(=O)Nc1cc2c(Nc3ccc(F)c(Cl)c3)ncnc2cc1O[C@H]1CCOC1 [Afatinib]
Cholesterol-free media + simvastatin (0.04 μM) [1, 8]: 0.1756 | Complete Media [1, 9]: 0.2197 | Difference [1, 10]: 0.04 | Difference [2, 11]: 0.00 | Cholesterol-free [2, 15]: 0.02665 | Complete [2, 16]: 0.0309

Cc1ccccc1-n1c(CF)nc2ccc(N)cc2c1=O [Afloqualone]
Cholesterol-free media + simvastatin (0.04 μM) [1, 3]: 1.16 | Complete Media [1, 4]: 1.332 | Difference [1, 25]: 0.17 | Difference [2, 26]: 0.04 | Cholesterol-free [2, 15]: 1.063 | Complete [2, 16]: 1.104

O=C(CNC(=O)c1ccc(C2=NOC(c3cc(Cl)cc(C(F)(F)F)c3)(C(F)(F)F)C2)c2ccccc12)NCC(F)(F)F (stereo not drawn) [Afoxolaner]
Cholesterol-free media + simvastatin (0.04 μM) [1, 3]: 2.42 | Difference [1, 27]: −1.05 | Cholesterol-free [2, 15]: 1.008 | Complete [2, 16]: 1.19 | Difference [2, 28]: 0.18

COc1ccc2cccc(CCNC(C)=O)c2c1 [Agomelatine (hydrochloride)]
Cholesterol-free media + simvastatin (0.04 μM) [1, 29]: 1.126 | Complete Media [1, 30]: 0.7656 | Difference [1, 5]: −0.36 | Difference [2, 11]: 0.00 | Cholesterol-free [2, 15]: 0.7477 | Complete [2, 16]: 0.7483

COc1ccc2cccc(CCNC(C)=O)c2c1 [Agomelatine]
Cholesterol-free media + simvastatin (0.04 μM) [1, 29]: 1.184 | Complete Media [1, 30]: 0.8914 | Difference [1, 5]: −0.29 | Cholesterol-free [2, 15]: 0.6611 | Complete [2, 16]: 0.8138 | Difference [2, 17]: 0.15

CC[C@H]1[C@@H]2C[C@H]3[C@@H]4N(C)c5ccccc5[C@]45C[C@@H]([C@H]2[C@H]5O)N3[C@@H]1O [Ajmaline]
Cholesterol-free media + simvastatin (0.04 μM) [1, 22]: 1.33 | Complete Media [1, 23]: 1.333 | Difference [1, 27]: 0.00 | Difference [2, 26]: −0.16 | Cholesterol-free [2, 7]: 1.107 | Complete [2, 4]: 0.943

CCC[S+]([O-])c1ccc2[nH]c(NC(=O)OC)nc2c1 (stereo not drawn) [Albendazole sulfoxide]
Cholesterol-free media + simvastatin (0.04 μM) [1, 13]: 1.376 | Complete Media [1, 14]: 1.125 | Difference ([1]; complete media vs cholesterol-free media + simvastatin (0.04 μM), […]): −0.25 | Cholesterol-free [2, 12]: 1.467 | Complete ([2]; NCI-H292 cells, complete media): 1.005 | Difference [2, 28]: −0.46

CCCSc1ccc2nc(NC(=O)OC)[nH]c2c1 [Albendazole]
Cholesterol-free media + simvastatin (0.04 μM) [1]: 1.236 | Complete Media [1]: 0.9882 | Difference [1]: −0.25 | Cholesterol-free [2]: 0.9001 | Complete [2]: 0.9862 | Difference [2]: 0.09

CN1CCC(=C2c3ccccc3CCn3c(C=O)cnc32)CC1 [Alcaftadine]
Cholesterol-free media + simvastatin (0.04 μM) [1]: 1.165 | Complete Media [1]: 0.9908 | Difference [1]: −0.17 | Cholesterol-free [2]: 1.45 | Complete [2]: 1.003 | Difference [2]: −0.45

CCc1cc2c(cc1N1CCC(N3CCOCC3)CC1)C(C)(C)c1[nH]c3cc(C#N)ccc3c1C2=O [Alectinib (Hydrochloride)]
Cholesterol-free media + simvastatin (0.04 μM) [1, 13]: 0.8676 | Complete Media [1, 14]: 0.6682 | Difference [1, 5]: −0.20 | Cholesterol-free [2, 15]: 0.7945 | Complete [2, 16]: 1.394 | Difference [2, 17]: 0.60

CCc1cc2c(cc1N1CCC(N3CCOCC3)CC1)C(C)(C)c1[nH]c3cc(C#N)ccc3c1C2=O [Alectinib]
Cholesterol-free media + simvastatin (0.04 μM) [1, 29]: 1.385 | Complete Media [1, 30]: 1.02 | Difference [1, 5]: −0.37 | Difference [2, 11]: −0.21 | Cholesterol-free [2, 12]: 1.125 | Complete ([2]; NCI-H292 cells, complete media): 0.9146

NCCCC(O)(P(=O)(O)O)P(=O)(O)O [Alendronate (sodium hydrate)]
Cholesterol-free media + simvastatin (0.04 μM) [1, 3]: 0.388 | Difference [1, 10]: 0.78 | Cholesterol-free [2, 15]: 0.1249 | Complete [2, 16]: 0.2776 | Difference [2, 17]: 0.15
